Laboratory results from patent publication US20260258003A1, “SLACK-ACTIVATING COMPOUNDS AND THEIR MEDICAL USE” (Johann Wolfgang Goethe-Universität Frankfurt am Main, priority 2023, published 2026).
Each block holds one molecule with its values, some of them ahead of it.

Experiments:
human Slack = biological target: T1, human Slack (Homo sapiens, UniProt Q5JUK3); test: Whole-cell patch-clamp recordings in HEK-Slack cells; type: cell-based
T1 construct: host or cells: HEK293
T1 sequence (Q5JUK3 1-1230): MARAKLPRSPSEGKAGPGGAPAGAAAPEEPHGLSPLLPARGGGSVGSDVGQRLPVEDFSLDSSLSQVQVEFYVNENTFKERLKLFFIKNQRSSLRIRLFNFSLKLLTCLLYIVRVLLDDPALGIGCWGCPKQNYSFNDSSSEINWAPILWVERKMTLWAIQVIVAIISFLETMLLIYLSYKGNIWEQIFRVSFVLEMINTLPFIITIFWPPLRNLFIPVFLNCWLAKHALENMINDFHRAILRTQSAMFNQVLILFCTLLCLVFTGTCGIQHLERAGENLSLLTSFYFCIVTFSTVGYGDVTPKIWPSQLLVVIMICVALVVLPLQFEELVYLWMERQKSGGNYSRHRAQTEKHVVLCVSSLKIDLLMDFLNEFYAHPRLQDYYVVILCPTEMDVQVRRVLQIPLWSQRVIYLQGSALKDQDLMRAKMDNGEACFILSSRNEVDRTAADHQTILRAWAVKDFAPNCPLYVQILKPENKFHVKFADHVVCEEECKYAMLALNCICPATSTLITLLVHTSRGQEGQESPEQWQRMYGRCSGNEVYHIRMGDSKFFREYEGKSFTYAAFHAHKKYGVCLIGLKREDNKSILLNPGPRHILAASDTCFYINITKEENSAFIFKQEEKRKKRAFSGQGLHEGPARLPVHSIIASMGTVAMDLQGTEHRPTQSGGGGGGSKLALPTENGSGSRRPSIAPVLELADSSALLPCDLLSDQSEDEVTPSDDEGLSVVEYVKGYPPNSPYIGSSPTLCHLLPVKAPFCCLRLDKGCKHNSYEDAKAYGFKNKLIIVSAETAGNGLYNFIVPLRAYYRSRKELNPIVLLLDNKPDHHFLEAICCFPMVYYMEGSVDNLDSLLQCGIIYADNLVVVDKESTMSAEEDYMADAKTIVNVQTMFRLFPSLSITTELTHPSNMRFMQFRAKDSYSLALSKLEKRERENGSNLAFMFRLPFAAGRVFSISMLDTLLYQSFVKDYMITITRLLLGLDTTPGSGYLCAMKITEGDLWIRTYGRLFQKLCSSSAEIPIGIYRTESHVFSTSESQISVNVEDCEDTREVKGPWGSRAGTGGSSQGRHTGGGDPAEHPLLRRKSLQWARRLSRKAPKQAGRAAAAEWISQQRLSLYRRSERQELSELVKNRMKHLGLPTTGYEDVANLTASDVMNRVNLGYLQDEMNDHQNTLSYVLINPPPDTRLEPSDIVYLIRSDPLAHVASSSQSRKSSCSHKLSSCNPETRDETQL
Experimental: Generally, in these experiments, HEK-Slack cells were plated onto poly-D-lysine-coated (100 μg/mL, Sigma Aldrich) coverslips 1 day before experiments and cultured in DMEM containing 10% FBS and 1% penicillin/streptomycin in 5% CO2 at 37° C. Whole-cell voltage clamp recordings were acquired using an EPC 9 amplifier combined with Patchmaster software (HEKA Electronics, Lambrecht/Pfalz, Germany). Currents were sampled at 20 kHz and filtered at 5 KHz. Data analysis was performed using the Fitmaster software (HEKA Electronics). Membrane potential was held at −70 mV and outward K^+ current (IK) was evoked by depolarizing steps (500 ms duration) ranging from −120 to +120 mV in increments of 20 mV. The pipette solution contained 140 mM KCl, 2 mM MgCl2, 5 mM EGTA, 10 mM HEPES, and was adjusted to pH 7.4 with KOH. The extracellular solution contained 140 mM NaCl, 5 mM KCl, 2 mM CaCl2), 2 mM MgCl2, 10 mM HEPES, and was adjusted to pH 7.4 with NaOH.
At a holding potential of −70 mV a series of 500 ms-long test pulses ranging from −120 to +120 mV in intervals of 20 mV were applied.
Fold increase values in patch-clamp experiments were determined by calculating […].

[1] = test system: chloroquine-induced scratching behavior of mice; test: Chloroquine-induced itch model, topical application of creme; type: in vivo; conditions: 5% in hydrophilic creme (Basiscreme DAC), topical 30 min prior to s.c. chloroquine
Experimental: Animals: Experiments were performed in 8-16 week-old C57BL/6N mice (Charles River, Sulzfeld, Germany) of either sex. The animals were housed under a 12 h light/dark cycle with access to food and water ad libitum. All experiments adhered to the Animal Research: Reporting on In Vivo Experiments (ARRIVE) guidelines and were approved by and conducted in accordance with the regulations of the local Animal Welfare authorities (Regierungspräsidium Darmstadt, Germany; approval number V54-19c20/15-FR/2011). All behavioral studies were conducted during the light cycle of the day at room temperature (20-24° C.) by an observer blinded for the treatment of the animals.
Drug formulation: A creme formulation of Compound 6 and Compound 21 was prepared by mixing a hydrophilic creme (Basiscreme DAC) with 5% of each Slack activator.
Behavioral assessment: Three to four days before the day of the experiment, the fur on the dorsolateral aspect of the neck was shaved under brief isoflurane anesthesia. On the testing day, Compound 6 creme, Compound 21 creme, or creme vehicle were applied topically on the shaved region of the neck under brief isoflurane anesthesia and the mice were habituated to a Plexiglas cylinder (30 cm in diameter) for 30 min immediately thereafter. […] The number of scratching bouts directed towards the nape of the neck was assessed over 30 min by videotaping.

[2] = biological target: T2, short form of dopamine receptor D2 (D2S) (Homo sapiens, UniProt P14416); test: SafetyScreen44 binding; conditions: 10 μM; substantial = higher than 50%
T2 construct: Eurofins SafetyScreen44
Experimental: (§1) Compound enzyme inhibition effect was calculated as a % inhibition of control enzyme activity. […] Measurements were performed in duplicate.

[3] = biological target: T3, serotonin transporter (SET) (Homo sapiens, UniProt P31645); test: SafetyScreen44 binding; conditions: substantial = higher than 50%
T3 construct: Eurofins SafetyScreen44

[4] = biological target: T4, cannabinoid receptor 1 (CB1) (Homo sapiens, UniProt P21554); test: SafetyScreen44 binding; conditions: 10 μM; substantial = higher than 50%
T4 construct: Eurofins SafetyScreen44
Experimental: as §1

muscarine M3 receptor = biological target: T5, muscarine M3 receptor (Homo sapiens, UniProt P20309); test: SafetyScreen44 binding; conditions: substantial = higher than 50%
T5 construct: Eurofins SafetyScreen44

muscarine M1 receptor = muscarine M1 receptor (Homo sapiens, UniProt P11229); test: SafetyScreen44 binding; conditions: substantial = higher than 50%
Chain of muscarine M1 receptor (P11229 whole entry): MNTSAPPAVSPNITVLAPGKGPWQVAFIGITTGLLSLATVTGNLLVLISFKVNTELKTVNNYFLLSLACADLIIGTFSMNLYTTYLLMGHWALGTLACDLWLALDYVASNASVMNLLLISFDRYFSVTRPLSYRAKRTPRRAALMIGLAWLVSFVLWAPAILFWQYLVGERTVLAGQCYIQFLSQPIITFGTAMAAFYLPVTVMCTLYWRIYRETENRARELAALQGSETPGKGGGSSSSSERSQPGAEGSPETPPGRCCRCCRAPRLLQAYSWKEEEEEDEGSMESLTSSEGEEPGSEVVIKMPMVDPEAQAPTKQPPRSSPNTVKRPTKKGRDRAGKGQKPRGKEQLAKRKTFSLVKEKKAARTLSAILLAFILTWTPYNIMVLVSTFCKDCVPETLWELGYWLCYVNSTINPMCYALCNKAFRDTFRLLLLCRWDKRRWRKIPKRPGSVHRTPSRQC

T3 sequence (P31645 whole entry): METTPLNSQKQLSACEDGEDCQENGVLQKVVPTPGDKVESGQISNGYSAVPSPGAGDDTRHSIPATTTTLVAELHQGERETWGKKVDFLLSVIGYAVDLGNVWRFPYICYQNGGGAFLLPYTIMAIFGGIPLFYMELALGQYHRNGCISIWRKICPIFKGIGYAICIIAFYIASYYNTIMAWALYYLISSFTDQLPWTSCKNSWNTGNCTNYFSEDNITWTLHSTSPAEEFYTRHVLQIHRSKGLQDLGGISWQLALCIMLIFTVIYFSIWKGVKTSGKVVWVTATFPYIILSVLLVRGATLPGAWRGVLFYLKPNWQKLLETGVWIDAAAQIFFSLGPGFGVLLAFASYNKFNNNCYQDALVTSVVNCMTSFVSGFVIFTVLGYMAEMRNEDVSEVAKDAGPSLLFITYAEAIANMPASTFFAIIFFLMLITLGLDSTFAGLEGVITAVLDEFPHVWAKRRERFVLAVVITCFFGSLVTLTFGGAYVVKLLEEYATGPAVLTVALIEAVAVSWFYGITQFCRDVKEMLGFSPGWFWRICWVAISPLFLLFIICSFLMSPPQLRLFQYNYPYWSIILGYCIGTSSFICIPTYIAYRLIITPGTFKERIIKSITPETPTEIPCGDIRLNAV
T5 sequence (P20309 whole entry): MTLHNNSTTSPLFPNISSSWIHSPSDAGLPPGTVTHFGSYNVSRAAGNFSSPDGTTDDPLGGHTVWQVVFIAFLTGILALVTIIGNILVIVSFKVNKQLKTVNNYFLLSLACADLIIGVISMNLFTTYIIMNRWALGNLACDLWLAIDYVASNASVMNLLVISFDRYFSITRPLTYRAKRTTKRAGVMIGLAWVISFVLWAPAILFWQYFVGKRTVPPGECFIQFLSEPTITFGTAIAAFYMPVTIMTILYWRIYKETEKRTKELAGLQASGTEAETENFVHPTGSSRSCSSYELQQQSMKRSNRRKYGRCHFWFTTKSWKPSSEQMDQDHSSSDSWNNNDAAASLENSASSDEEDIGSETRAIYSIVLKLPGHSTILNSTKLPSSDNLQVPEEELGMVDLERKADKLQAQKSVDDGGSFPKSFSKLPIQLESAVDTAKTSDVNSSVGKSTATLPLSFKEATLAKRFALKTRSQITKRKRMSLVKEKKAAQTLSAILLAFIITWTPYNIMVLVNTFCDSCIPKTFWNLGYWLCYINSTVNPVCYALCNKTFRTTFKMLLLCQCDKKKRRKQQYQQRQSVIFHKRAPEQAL
T4 sequence (P21554 whole entry): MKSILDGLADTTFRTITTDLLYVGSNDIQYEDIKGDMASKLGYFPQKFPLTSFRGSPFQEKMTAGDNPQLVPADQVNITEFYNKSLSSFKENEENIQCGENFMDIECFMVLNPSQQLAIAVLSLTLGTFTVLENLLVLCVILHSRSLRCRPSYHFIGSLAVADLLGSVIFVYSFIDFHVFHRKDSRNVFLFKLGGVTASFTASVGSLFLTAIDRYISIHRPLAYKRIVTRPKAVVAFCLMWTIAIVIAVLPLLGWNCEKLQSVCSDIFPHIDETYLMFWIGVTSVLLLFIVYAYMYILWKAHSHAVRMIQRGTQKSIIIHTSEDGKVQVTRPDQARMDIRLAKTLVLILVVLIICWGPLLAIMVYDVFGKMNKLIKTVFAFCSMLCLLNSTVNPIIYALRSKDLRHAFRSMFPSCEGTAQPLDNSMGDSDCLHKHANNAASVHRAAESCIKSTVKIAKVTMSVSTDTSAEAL
T2 sequence (P14416 1-414 isoform P14416-2): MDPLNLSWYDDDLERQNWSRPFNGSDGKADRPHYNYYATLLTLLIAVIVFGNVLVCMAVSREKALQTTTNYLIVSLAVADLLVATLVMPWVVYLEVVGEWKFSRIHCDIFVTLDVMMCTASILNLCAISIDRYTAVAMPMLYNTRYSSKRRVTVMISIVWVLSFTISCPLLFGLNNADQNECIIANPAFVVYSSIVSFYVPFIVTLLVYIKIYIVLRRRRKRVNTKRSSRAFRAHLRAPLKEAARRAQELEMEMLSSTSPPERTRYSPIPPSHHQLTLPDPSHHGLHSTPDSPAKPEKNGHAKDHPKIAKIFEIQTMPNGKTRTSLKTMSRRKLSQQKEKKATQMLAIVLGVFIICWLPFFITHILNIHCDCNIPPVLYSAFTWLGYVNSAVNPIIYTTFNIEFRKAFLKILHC

IK amplitude in comparison to vehicle (human Slack; 50 μM): all except Compound 3
Compound: CN1CCCN(C2=Nc3ccccc3Oc3ccc(C(F)(F)F)cc32)CC1 [Compound 3, 11-(4-Methyl-1,4-diazepan-1-yl)-2-(trifluoromethyl)dibenzo[b,f][1,4]oxazepine]

Compound: O=C(O)COCCN1CCN(C2=Nc3ccccc3Oc3ccc(Cl)cc32)CC1 [Compound 6, 2-(2-(4-(2-Chlorodibenzo[b,f][1,4]oxazepin-11-yl)piperazin-1-yl)ethoxy) acetic acid]
chloroquine-induced scratching behavior after topical application [1]: significantly ameliorated scratching behavior | binding inhibition, D2S [2]: substantial binding | binding inhibition, SET ([3]; 10 μM): substantial binding

fold increase compared to baseline (human Slack; 25 μM): 7.74±1.525 fold | fold increase compared to baseline (human Slack; 50 μM): 12.54±1.395 fold
Compound: O=c1nc(CN2CCN(C3=Nc4ccccc4Oc4ccc(Cl)cc43)CC2)[nH][nH]1 [Compound 10, 5-((4-(2-Chlorodibenzo[b,f][1,4]oxazepin-11-yl)piperazin-1-yl)methyl)-1,2-dihydro-3H-1,2,4-triazol-3-one]
binding inhibition, CB1 [4]: substantial binding inhibition

Compound: CN1CCN(C2=Nc3ccccc3Oc3ccc(Cl)cc32)CC1 [Loxapine, 2-chloro-11-(4-methylpiperazin-1-yl)dibenzo[b,f][1,4]oxazepine, reference compound]
inhibition at 10 µM (muscarine M3 receptor): > 50% | inhibition at 10 µM (muscarine M1 receptor): > 50% | inhibition at 10 µM [3]: > 50%
